This passage reports MIC results from DBAASP.

Values after ≈ are worked out from the molar mass of the structure shown. Values joined by “and” are separate entries in the source; they are usually repeats but may differ in a detail not shown here. Identical values can stand only once.

What all share (assay): ≥ marks a high value that may be exact or a test limit, other limits are often not marked, values filed in µg/mL are converted to µM
For experiment [1], the system named is Micrococcus luteus.
Experiment [2] deals with Escherichia coli D31.
Experiment [3] deals with Escherichia coli D22.
Experiment [4] deals with Escherichia coli 1106.
Experiment [5] deals with Pseudoalteromonas carrageenovora ATCC 43555.
For experiment [6], the system named is Enterococcus faecalis.
Experiment [7] relates to Bacillus megaterium.
Experiment [8] relates to Salmonella typhimurium.
Experiment [9] deals with Staphylococcus aureus.
Experiment [10] concerns Aerococcus viridans.
Experiment [11] deals with Pseudomonas alginovora.
Experiment [12] relates to Staphylococcus aureus PCM 1944.
For experiment [13], the system named is Escherichia coli PCM 2057.
Experiment [14] concerns Klebsiella aerogenes.
Experiment [15] relates to Streptococcus agalactiae ATCC 27956.
Experiment [16] concerns Proteus vulgaris.
Experiment [17] deals with Enterococcus faecalis ATCC 29212.
Experiment [18] concerns Escherichia coli.
Experiment [19] concerns Pseudomonas aeruginosa ATCC 27853.
Experiment [20] relates to Streptococcus oralis ATCC 35037.
For experiment [21], the system named is Streptococcus pneumoniae ATCC 49619.
In experiment [22] the test system is Enterococcus faecium.
Experiment [23] has as its system Proteus mirabilis.
The test system of experiment [24] is Serratia marcescens.
The test system of experiment [25] is Klebsiella oxytoca.
For experiment [26], the system named is Klebsiella pneumoniae ATCC 700603.
Experiment [27] relates to Enterobacter cloacae.
Experiment [28] deals with Pseudomonas aeruginosa.
Experiment [29] has as its system Citrobacter freundii.
In experiment [30] the test system is Staphylococcus epidermidis.
In experiment [31] the test system is Streptococcus pneumoniae.
The test system of experiment [32] is Acinetobacter calcoaceticus.
Experiment [33] relates to Staphylococcus haemolyticus.
Experiment [34] relates to Staphylococcus epidermidis ATCC 14990.
Experiment [35] deals with Escherichia coli O157:H7 ATCC 35150.
For experiment [36], the system named is Salmonella enterica serovar Typhimurium.
The subject of experiment [37] is Theileria equi.
The subject of experiment [38] is Streptococcus gordonii DL1.
For experiment [39], the system named is Streptococcus sanguinis NY101.
The test system of experiment [40] is Streptococcus mutans comD.
Experiment [41] concerns Streptococcus mutans UA159.
Experiment [42] deals with Escherichia coli KCCM 11569.
Experiment [43] deals with Bacillus subtilis KCCM 11495.

Regarding `C[C@@H]1NC(=O)[C@H](Cc2c[nH]c3ccccc23)NC(=O)CNC(=O)[C@H](CCCCN)NC(=O)[C@@H]2CSSC[C@@H](C(=O)O)NC(=O)[C@H](CCCN=C(N)N)NC(=O)[C@H](Cc3ccccc3)NC(=O)[C@@H]3CSSC[C@H](NC(=O)[C@H](CCCCN)NC(=O)[C@H](C)NC(=O)[C@H](CCCCN)NC(=O)[C@@H]4CSSC[C@H](NC(=O)[C@H](Cc5ccc(O)cc5)NC(=O)[C@H](CSSC[C@H](NC(=O)CN)C(=O)N[C@@H](C)C(=O)N[C@@H](CO)C(=O)N[C@@H](CCCN=C(N)N)C(=O)N4)NC(=O)[C@H](CCCN=C(N)N)NC(=O)CNC(=O)[C@H](CCCN=C(N)N)NC(=O)[C@H](Cc4ccccc4)NC(=O)[C@H](CO)NC(=O)[C@H](C)NC(=O)[C@H](CO)NC1=O)C(=O)N[C@@H](CCCCN)C(=O)N3)C(=O)N[C@@H](C)C(=O)NCC(=O)N[C@@H](CCCN=C(N)N)C(=O)N[C@@H](CCCN=C(N)N)C(=O)N2` [GCASRCKAKCAGRRCKGWASASFRGRCYCKCFRC], the MIC (commonly the smallest concentration in the dilution series that meets the test's criterion for growth inhibition) came out at 0.849 µM (≈ 3.2 µg/mL) in [1]; 3.54 µM (≈ 13.3 µg/mL) in [2]; 7.07 µM (≈ 26.7 µg/mL) in [3]; 10 µM (≈ 37.7 µg/mL) in experiment [4]; 3.54 µM (≈ 13.3 µg/mL) in [5]; 3.54 µM (≈ 13.3 µg/mL) in experiment [6]. Further, the MIC in [7] was 0.849 µM (≈ 3.2 µg/mL); in [8], 10 µM (≈ 37.7 µg/mL); in [9], 7.07 µM (≈ 26.7 µg/mL); in [10] it was 0.849 µM (≈ 3.2 µg/mL); in experiment [11] it was 3.54 µM (≈ 13.3 µg/mL).

As to `CC[C@H](C)[C@H](N)C(=O)NCC(=O)N[C@H]1CSSC[C@@H](C(=O)N[C@@H](Cc2ccccc2)C(=O)N[C@H](C(=O)N[C@@H](CCCCN)C(N)=O)C(C)C)NC(=O)[C@@H]2CCCN2C(=O)[C@H](CCCN=C(N)N)NC(=O)[C@@H]2CCCN2C(=O)[C@@H]2CCCN2C(=O)[C@H]([C@@H](C)CC)NC(=O)[C@H](CO)NC(=O)[C@H](CCCCN)NC(=O)[C@H]([C@@H](C)O)NC(=O)[C@H](Cc2c[nH]c3ccccc23)NC1=O` [IGCWTKSIPPRPCFVK], the MIC in [12] and in experiment [13] was at least 546 µM in each case.

On to `NC(=O)CC[C@H](N)C(=O)N[C@@H](Cc1c[nH]c2ccccc12)C(=O)NCC(=O)N[C@@H](CCCN=C(N)N)C(=O)N[C@@H](CCCN=C(N)N)C(=O)N[C@H]1CSSC[C@@H]2NC(=O)[C@H](Cc3ccc(O)cc3)NC(=O)[C@H](CCCN=C(N)N)NC(=O)[C@H](CCCN=C(N)N)NC(=O)CNC(=O)[C@@H]3CCCN3C(=O)CNC(=O)[C@H](Cc3c[nH]c4ccccc34)NC(=O)CNC(=O)[C@H](CSSC[C@@H](C(=O)O)NC(=O)[C@H](Cc3c[nH]c4ccccc34)NC(=O)[C@H](CCCN=C(N)N)NC(=O)[C@H](CCCN=C(N)N)NC2=O)NC1=O` [QWGRRCCGWGPGRRYCRRWC], for which the MIC in [14] is 8.9 µM (≈ 22.6 µg/mL); in experiment [15], at least 62.9 µM; in experiment [16], 17.8 µM (≈ 45.2 µg/mL); in experiment [17] it was 15.7 µM and 31.5 µM; in [18], 2.22 µM (≈ 5.65 µg/mL); in experiment [19], 62.9 µM (≈ 160 µg/mL). In addition, the MIC is 31.5 µM and ≥ 78.6 µM in [20]; 7.86 µM and 15.7 µM in experiment [21]; 1.57 µM (≈ 3.99 µg/mL) in experiment [22]; 25.2 µM (≈ 63.9 µg/mL) in experiment [23]; 4.45 µM (≈ 11.3 µg/mL) in experiment [24]; 17.8 µM (≈ 45.2 µg/mL) in experiment [25]. Moreover, the MIC in experiment [26] was 47.2 µM and 62.9 µM; in [27] it was 2.22 µM (≈ 5.65 µg/mL); in experiment [9], 3.15 µM (≈ 7.99 µg/mL); in experiment [28], over 50.3 µM; in [29], at least 50.3 µM; in experiment [30] it was 8.9 µM (≈ 22.6 µg/mL). For the same compound, the MIC was 8.9 µM (≈ 22.6 µg/mL) in experiment [31]; at least 50.3 µM in experiment [32]; 4.45 µM (≈ 11.3 µg/mL) in experiment [33]; 31.5 µM and ≥ 62.9 µM in [34].

Turning to `CC[C@H](C)[C@H](NC(=O)CNC(=O)[C@H](C)NC(=O)[C@H](CS)NC(=O)[C@H](Cc1ccc(O)cc1)NC(=O)CNC(=O)CNC(=O)[C@H](CCCN=C(N)N)NC(=O)[C@H](CCCN=C(N)N)NC(=O)CNC(=O)[C@@H](NC(=O)[C@@H](N)CO)[C@@H](C)CC)C(=O)N[C@H](C(=O)N[C@@H](CCCCN)C(=O)N[C@@H](CCC(N)=O)C(=O)N[C@H](C(=O)N[C@@H](CS)C(=O)N[C@H](C(=O)N[C@@H](CS)C(=O)N[C@@H](Cc1ccc(O)cc1)C(=O)N[C@@H](CCCN=C(N)N)C(=O)O)[C@@H](C)O)[C@@H](C)O)[C@@H](C)CC` [SIGRRGGYCAGIIKQTCTCYR], the MIC in experiment [35] was 2 µM (≈ 4.61 µg/mL); in experiment [36], 10 µM (≈ 23.1 µg/mL); in [9], 2 µM (≈ 4.61 µg/mL); in experiment [28] it was 2 µM (≈ 4.61 µg/mL); in experiment [37] it was 5 µM (≈ 11.5 µg/mL).

In the case of `CC(C)C[C@H](NC(=O)[C@H](CCCN=C(N)N)NC(=O)[C@H](Cc1ccccc1)NC(=O)[C@H](Cc1ccccc1)NC(=O)[C@@H](N)[C@@H](C)O)C(=O)N[C@@H](Cc1ccccc1)C(=O)N[C@@H](CC(N)=O)C(=O)N[C@@H](CCCN=C(N)N)C(=O)N[C@@H](CO)C(=O)NCC(=O)NCC(=O)NCC(=O)N[C@@H](Cc1ccccc1)C(=O)N[C@@H](CCCCN)C(=O)N[C@@H](CCCCN)C(=O)N[C@@H](Cc1ccccc1)C(=O)N[C@@H](Cc1c[nH]c2ccccc12)C(=O)N[C@@H](CCCCN)C(=O)N[C@@H](Cc1c[nH]c2ccccc12)C(=O)N[C@@H](Cc1ccccc1)C(=O)N[C@@H](CCCN=C(N)N)C(=O)N[C@@H](CCCN=C(N)N)C(=O)N[C@@H](Cc1ccccc1)C(=O)O` [TFFRLFNRSGGGFKKFWKWFRRF], the MIC in [38] was found to be 10 µM (≈ 30.2 µg/mL); in experiment [39], 20 µM (≈ 60.3 µg/mL); in [40], 2.5 µM (≈ 7.54 µg/mL); in [41], 2.5 µM (≈ 7.54 µg/mL).

As for `CC(C)C[C@H](NC(=O)[C@@H](NC(=O)CNC(=O)[C@H](CCCCN)NC(=O)[C@H](C)NC(=O)[C@H](CS)NC(=O)[C@H](CC(N)=O)NC(=O)[C@H](CC(C)C)NC(=O)CNC(=O)[C@H](Cc1cnc[nH]1)NC(=O)[C@H](Cc1cnc[nH]1)NC(=O)[C@H](CC(C)C)NC(=O)[C@H](CC(C)C)NC(=O)[C@H](C)NC(=O)[C@H](CC(N)=O)NC(=O)[C@H](CC(C)C)NC(=O)[C@@H](N)Cc1c[nH]c2ccccc12)C(C)C)C(N)=O` [WLNALLHHGLNCAKGVL], the figures for the MIC in experiment [42] and in experiment [43] were 1.52 µM (≈ 2.83 µg/mL) and 0.538 µM (≈ 1 µg/mL), respectively.
